Measured values taken from paper PMC7356998, “Intrinsic Dissolution Rate Profiling of Poorly Water-Soluble Compounds in Biorelevant Dissolution Media” (Pharmaceutics, 2020).
Values after ≈ are worked out from the molar mass of the structure shown. Marks after values point to notes of the source that are not given here.

assay: Apparent solubility estimated from dissolution experiments in the μDiss Profiler; format: physicochemical; conditions: FaSSIF-V1, 37 °C, pH 6.5, fassif, thermodynamic from solid, FaSSIF-V1 pH 6.5, determined from dissolution experiments in the μDiss Profiler; read-out: SFaSSIF-V1
Experimental: If literature values were not available, Sapp values were estimated from the dissolution experiments either from the steady state concentration reached during dissolution making use of an excess amount material, or by nonlinear regression analysis of the dissolution data in GraphPad Prism 7.04 (GraphPad Software Inc., San Diego, CA, USA). […] In these experiments, an excess amount of drug was added to triplicate Eppendorf tubes containing 1 mL of the respective dissolution medium. The tubes were vortexed and placed in a 37 °C incubator. Samples for HPLC analysis were taken 24, 48, and 72 h (triplicates at each time point) after initiation of the experiment to ensure that equilibrium had been reached. The samples were centrifuged at 37 °C, 23,000 g for 10 min (Heraeus Megafuge 8R, Thermo Scientific, Waltham, MA, USA). The supernatant was sampled, diluted 1:1 with acetonitrile, and kept refrigerated until HPLC analysis. The concentrations of the dissolved drugs were determined using a HPLC (Agilent Technologies 1290 Infinity, Santa Clara, CA, USA) with a Zorbax Eclipse XDB-C18 column (4.6 × 100 mm; Agilent Technologies, Santa Clara, CA, USA) kept at 40 °C. The injection volumes were 20 μL. A mobile phase 0.1% formic acid in acetonitrile: 0.1% formic acid in water 60:40 (v/v) and an isocratic flow rate at 1 mL/min were used for both naproxen and ethinylestradiol. UV absorbances were monitored at a wavelength of 232 nm for naproxen and 315 nm for ethinylestradiol. The retention time was 1.76 min for naproxen and 1.85 min for ethinylestradiol. Dissolution experiments were carried out in a small-scale dissolution apparatus using in situ fiber optic probes to measure the amount of drug dissolved over time by UV absorbance (μDiss Profiler, Pion Inc., Billerica, MA, USA). Drug dissolution was carried out from suspensions (S) or discs (D) depending on the solubility of the compound in the biorelevant media studied (Table 3). […] Glass vials (six in parallel), each containing 15 mL of biorelevant dissolution medium and a crossbar stirrer, were used for the dissolution experiments. The stirring rate was set to 100 rpm. Freshly prepared API suspensions were briefly vortexed to re-disperse any sediments and 500 μL of suspension was added to each vial to initiate the experiment. […] Experiments were run for at least 20 min with data collected every 1 s for the first 8 min and then once per minute for the remaining time. All dissolution experiments from suspensions were carried out in triplicate.

| SMILES | solubility thermodynamic |
| --- | --- |
| CC(C)(Oc1ccc(CCNC(=O)c2ccc(Cl)cc2)cc1)C(=O)O [Bezafibrate] | ~100 µg/mL (≈ 276 µM) |
| CC(C)(Oc1ccc(C(=O)c2ccc(Cl)cc2)cc1)C(=O)O [Fenofibric acid] | ~100 µg/mL (≈ 314 µM) |
| Cc1cccc(Nc2ccccc2C(=O)O)c1C [Mefenamic acid] | 36.6 ± 0.6 µg/mL (≈ 152 µM) |

same assay, conditions: FaSSIF-V1 pH 6.5, determined from dissolution experiments in the μDiss Profiler

| SMILES | SFaSSIF-V1 |
| --- | --- |
| CC(C)(Oc1ccc(CCNC(=O)c2ccc(Cl)cc2)cc1)C(=O)O [Bezafibrate] | 91.0 ± 8.9 µg/mL |
| CC(C)(Oc1ccc(C(=O)c2ccc(Cl)cc2)cc1)C(=O)O [Fenofibric acid] | 104.8 ± 1.0 µg/mL |

same assay, conditions: FaSSIF-V1 pH 6.5, extrapolation of μDiss dissolution data by nonlinear regression (GraphPad Prism)

| SMILES | SFaSSIF-V1 |
| --- | --- |
| COc1ccc2c(c1OC)C(=O)O[C@@H]2[C@H]1c2c(cc3c(c2OC)OCO3)CCN1C [Noscapine] | 13.4 ‡ μg/mL |

same assay, conditions: FaSSIF-V1 pH 6.5, extrapolation of μDiss dissolution data by nonlinear regression (GraphPad Prism); listed as noscapine

| SMILES | SFaSSIF-V1 |
| --- | --- |
| COc1ccc2c(c1OC)C(=O)O[C@@H]2[C@H]1c2c(cc3c(c2OC)OCO3)CCN1C [Noscapine] | 11 to 13 µg/mL |

same assay, conditions: FeSSIF-V1, 37 °C, pH 5, fessif, thermodynamic from solid, FeSSIF-V1 pH 5, determined from dissolution experiments in the μDiss Profiler; read-out: SFeSSIF-V1

| SMILES | solubility thermodynamic |
| --- | --- |
| CC(C)(Oc1ccc(C(=O)c2ccc(Cl)cc2)cc1)C(=O)O [Fenofibric acid] | 101 ± 3.8 µg/mL (≈ 318 µM) |
| Cc1cccc(Nc2ccccc2C(=O)O)c1C [Mefenamic acid] | 33.2 ± 0.7 µg/mL (≈ 138 µM) |
| CN1CC(=O)N2[C@H](c3ccc4c(c3)OCO4)c3[nH]c4ccccc4c3C[C@@H]2C1=O [Tadalafil] | 21 ± 0.5 µg/mL (≈ 53.9 µM) |

same assay, conditions: FeSSIF-V1 pH 5, extrapolation of μDiss dissolution data by nonlinear regression (GraphPad Prism)

| SMILES | SFeSSIF-V1 |
| --- | --- |
| CC(C)(Oc1ccc(CCNC(=O)c2ccc(Cl)cc2)cc1)C(=O)O [Bezafibrate] | 105.7 ‡ μg/mL |

assay: Intrinsic dissolution rate from controlled suspensions (SIDR), μDiss Profiler; format: physicochemical; conditions: suspension (S), FaSSIF-V1 pH 6.5, 37 °C, 100 rpm, mean ± SD
Experimental: Controlled suspensions of the APIs were prepared by tip ultrasonication in suspension media. For compatibility reasons, the suspension medium composition was 2% PVP K30 and 0.2% SDS in MilliQ water for acidic and neutral compounds or 1% HPMC and 0.2% SDS in MilliQ water for basic compounds. Suspension media were stirred for at least an hour until a clear solution was obtained. All suspensions were prepared at a concentration of 4 mg API/mL suspension medium by weighing 16 mg of the compound into a glass vial and adding 4 mL of the corresponding suspension medium. The suspension was then briefly vortexed prior to 5 min of tip ultrasonication using a Vibra-Cell sonicator mounted with a 13 mm (Ø) probe tip (Sonics, Newtown, CT, USA). The following settings were used: 20% amplitude, pulse 10 s on and 5 s off. The vial containing the suspension was placed in a beaker with ice during ultrasonication to avoid heating. Felodipine and griseofulvin were treated slightly differently to avoid forming a large fraction of submicron-sized particles. The felodipine suspension was only ultrasonicated for 1 min, and the griseofulvin suspension was used immediately after vortexing and without ultrasonication. All prepared suspensions were kept in an oven at 37 °C prior to use in the dissolution experiments. Dissolution experiments were performed within three hours of sample preparation.
The freshly prepared suspension was diluted (100 µL in 1 mL MilliQ water) and immediately used for determination of hydrodynamic particle size by dynamic light scattering (DLS; Litesizer 500, Anton Paar GmbH, Graz, Austria) at 25 °C. Peak values from the intensity-based particle size distribution were used for calculating total particle surface area in the suspension following the approach of Andersson et al.. In case of bimodal particle size distributions, an intensity peak weighted average particle size was calculated. The following assumptions were made for the surface area calculations: (i) spherical particles, (ii) constant particle size, and (iii) constant number of particles during the initial phase of the dissolution experiment (i.e., under sink conditions or <0.3 × Sapp). Using these assumptions, the volume of each particle (Vparticle) is:(1) Vparticle=4πr^3/3, where r is the mean radius of the suspended particles. The particle surface area (SAparticle) is:(2) SAparticle=4πr^2, and the volume of compound (Vmaterial) added to the dissolution medium is:(3) Vmaterial=m/ρ, where m is the total mass of compound added and ρ is the density of the compound. The total number of particles (n) in the suspension can thus be calculated from:(4) nparticles=Vmaterial/Vparticle
Finally, the total surface area (A, cm^2) of all particles present in the suspension added to the dissolution medium is calculated through:(5) A=nparticlesSAparticle
Dissolution experiments were carried out in a small-scale dissolution apparatus using in situ fiber optic probes to measure the amount of drug dissolved over time by UV absorbance (μDiss Profiler, Pion Inc., Billerica, MA, USA). Drug dissolution was carried out from suspensions (S) or discs (D) depending on the solubility of the compound in the biorelevant media studied (Table 3). […].
Standard curves were established by adding aliquots of DMSO stock solutions of the compounds to 3 mL of biorelevant medium, respectively. Dissolution media were prepared following the protocol provided by Biorelevant.com Ltd. and used within 48 h after their preparation. The media were incubated at 37 °C for at least one hour prior to use in the dissolution experiments. The hydrodynamic diameter of the micelles/vesicles formed in the biorelevant media were measured by DLS (Table 2). […] The biorelevant dissolution medium was maintained at 37 °C in the μDiss Profiler and stirred at 800 rpm during addition of the DMSO stock aliquots. […]

| SMILES | IDRFaSSIF-V1 |
| --- | --- |
| COc1ccc(CCN2CCC(Nc3nc4ccccc4n3Cc3ccc(F)cc3)CC2)cc1 [Astemizole] | 8.6 ± 0.4 μg/min/cm^2 |
| CC(C)(Oc1ccc(CCNC(=O)c2ccc(Cl)cc2)cc1)C(=O)O [Bezafibrate] | 32.7 ± 3.9 μg/min/cm^2 |
| COc1ccccc1OCCNCC(O)COc1cccc2[nH]c3ccccc3c12 (stereo not shown) [Carvedilol] | 2.9 ± 0.5 μg/min/cm^2 |
| C(=C\c1ccccc1)/CN1CCN(C(c2ccccc2)c2ccccc2)CC1 [Cinnarizine] | 0.3 ± 0.01 μg/min/cm^2 |
| Cc1cccc(Nc2ccccc2C(=O)O)c1C [Mefenamic acid] | 13.9 ± 2.0 μg/min/cm^2 |
| COc1ccc2c(c1OC)C(=O)O[C@@H]2[C@H]1c2c(cc3c(c2OC)OCO3)CCN1C [Noscapine] | 1.1 ± 0.2 μg/min/cm^2 |
| CN1CC(=O)N2[C@H](c3ccc4c(c3)OCO4)c3[nH]c4ccccc4c3C[C@@H]2C1=O [Tadalafil] | 3.4 ± 0.7 μg/min/cm^2 |

same assay, conditions: suspension (S), FaSSIF-V2 pH 6.5, 37 °C, 100 rpm, mean ± SD

| SMILES | IDRFaSSIF-V2 |
| --- | --- |
| COc1ccc(CCN2CCC(Nc3nc4ccccc4n3Cc3ccc(F)cc3)CC2)cc1 [Astemizole] | 2.0 ± 0.2 μg/min/cm^2 |
| COc1ccccc1OCCNCC(O)COc1cccc2[nH]c3ccccc3c12 (stereo not shown) [Carvedilol] | 1.5 ± 0.2 μg/min/cm^2 |
| Cc1cccc(Nc2ccccc2C(=O)O)c1C [Mefenamic acid] | 11.9 ± 1.0 μg/min/cm^2 |
| COc1ccc2c(c1OC)C(=O)O[C@@H]2[C@H]1c2c(cc3c(c2OC)OCO3)CCN1C [Noscapine] | 1.2 ± 0.1 μg/min/cm^2 |
| CN1CC(=O)N2[C@H](c3ccc4c(c3)OCO4)c3[nH]c4ccccc4c3C[C@@H]2C1=O [Tadalafil] | 1.3 ± 0.8 μg/min/cm^2 |

same assay, conditions: suspension (S), FeSSIF-V2 pH 5.8, 37 °C, 100 rpm, mean ± SD

| SMILES | IDRFeSSIF-V2 |
| --- | --- |
| COc1ccccc1OCCNCC(O)COc1cccc2[nH]c3ccccc3c12 (stereo not shown) [Carvedilol] | 13.6 ± 0.6 μg/min/cm^2 |
| Cc1cccc(Nc2ccccc2C(=O)O)c1C [Mefenamic acid] | 7.9 ± 2.1 μg/min/cm^2 |
| COc1ccc2c(c1OC)C(=O)O[C@@H]2[C@H]1c2c(cc3c(c2OC)OCO3)CCN1C [Noscapine] | 5.2 ± 0.8 μg/min/cm^2 |

same assay, conditions: suspension assays

| SMILES | IDR in fed-state medium (FeSSIF-V1) compared to fasted-state (FaSSIF-V1) |
| --- | --- |
| CN1CC(=O)N2[C@H](c3ccc4c(c3)OCO4)c3[nH]c4ccccc4c3C[C@@H]2C1=O [Tadalafil] | double |

assay: Intrinsic dissolution rate from miniaturized discs (DIDR), μDiss Profiler; format: physicochemical; conditions: disc (D), FaSSIF-V1 pH 6.5, 37 °C, 100 rpm, mean ± SD
Experimental: Dissolution experiments were carried out in a small-scale dissolution apparatus using in situ fiber optic probes to measure the amount of drug dissolved over time by UV absorbance (μDiss Profiler, Pion Inc., Billerica, MA, USA). Drug dissolution was carried out from suspensions (S) or discs (D) depending on the solubility of the compound in the biorelevant media studied (Table 3). […] Standard curves were established by adding aliquots of DMSO stock solutions of the compounds to 3 mL of biorelevant medium, respectively. Dissolution media were prepared following the protocol provided by Biorelevant.com Ltd. and used within 48 h after their preparation. The media were incubated at 37 °C for at least one hour prior to use in the dissolution experiments. The hydrodynamic diameter of the micelles/vesicles formed in the biorelevant media were measured by DLS (Table 2). […] Stirring was turned off while measuring the UV absorbance for each aliquot and the standard curve was established based on six aliquots. […] Intrinsic dissolution rates will henceforth be denoted 'IDR' for both SIDR and DIDR values determined in this study (see Table 3 for details).

| SMILES | IDRFaSSIF-V1 |
| --- | --- |
| CC(C)(Oc1ccc(C(=O)c2ccc(Cl)cc2)cc1)C(=O)O [Fenofibric acid] | 227 ± 33 μg/min/cm^2 |

assay: not given; conditions: apparent solubility, FaSSIF-V1 pH 6.5; cited from earlier work

| SMILES | SFaSSIF-V1 |
| --- | --- |
| COc1ccc(CCN2CCC(Nc3nc4ccccc4n3Cc3ccc(F)cc3)CC2)cc1 [Astemizole] | 97.9 ± 2.1 [15] μg/mL |
| COc1ccccc1OCCNCC(O)COc1cccc2[nH]c3ccccc3c12 (stereo not shown) [Carvedilol] | 55.9 ± 1.0 [15] μg/mL |
| CN1CC(=O)N2[C@H](c3ccc4c(c3)OCO4)c3[nH]c4ccccc4c3C[C@@H]2C1=O [Tadalafil] | 5.9 ± 0.7 [7] μg/mL |

same assay, conditions: apparent solubility, FaSSIF-V1 pH 6.5; listed as astemizole; cited from earlier work

| SMILES | SFaSSIF-V1 |
| --- | --- |
| COc1ccc(CCN2CCC(Nc3nc4ccccc4n3Cc3ccc(F)cc3)CC2)cc1 [Astemizole] | ~ 100 μg/mL |

same assay, conditions: apparent solubility, FeSSIF-V1 pH 5; cited from earlier work

| SMILES | SFeSSIF-V1 |
| --- | --- |
| COc1ccc(CCN2CCC(Nc3nc4ccccc4n3Cc3ccc(F)cc3)CC2)cc1 [Astemizole] | 182 ± 1 [15] μg/mL |
| COc1ccccc1OCCNCC(O)COc1cccc2[nH]c3ccccc3c12 (stereo not shown) [Carvedilol] | 305 ± 2 [15] μg/mL |
